Results as given in ChEMBL document CHEMBL6103567, “A novel pyridine-2-one AMPK inhibitor: Discovery, mechanism, and in vivo evaluation in a hypoxic pulmonary arterial hypertension rat model” (Eur J Med Chem, 2025).

Experiments:
[1] = Antiproliferative activity against human PASMC cells assessed as cell viability incubated for 48 hrs under hypoxia condition by CCK-8 assay; format: toxicity, cell-based
[2] = Induction of apoptosis in hypoxia-induced human PASMC cells assessed as viable cells at 5 uM incubated for 12 hrs by Annexin V/FITC staining based flow cytometry analysis (reference value: 88.26%); format: functional; settings: read-out: Activity
[3] = Induction of apoptosis in hypoxia-induced human PASMC cells assessed as early apoptotic cells at 5 uM incubated for 12 hrs by Annexin V/FITC staining based flow cytometry analysis (reference value: 10.17%); format: functional
[4] = Induction of apoptosis in hypoxia-induced human PASMC cells assessed as late apoptotic cells at 5 uM incubated for 12 hrs by Annexin V/FITC staining based flow cytometry analysis (reference value: 0.88%); format: functional
[5] = Induction of apoptosis in hypoxia-induced human PASMC cells assessed as necrotic cells at 5 uM incubated for 12 hrs by Annexin V/FITC staining based flow cytometry analysis (reference value: 0.68%); format: functional

## c1cc(-c2cnn3cc(-c4ccc(OCCN5CCCCC5)cc4)cnc23)ccn1 [DORSOMORPHIN]
[1]
  IC50: 5.48 µM
[2]
  viability at 5 µM: 89.4%
[3]
  Activity: 7.31%
[4]
  Activity: 1.7%
[5]
  Activity: 1.56%
